Our source for the IC50 values is patent US9913843B2, “Protein kinase C inhibitors and uses thereof” (Rigel Pharmaceuticals, Inc., priority 2012, dated 2018).

In this assay the test system is PKC mediated IL-2 production in human primary T cells. The assay is described as follows: IL-2 ELISA, human primary T cell, anti CD3+CD28+ (whole cell functional assay for PKC mediated IL-2 production). Type of assay: cell-based. In a few lines: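 IL-2 in supernatants was quantified by ELISA after 24 h at 37 °C. Before stimulation with plate-coated anti-CD3 (1 μg/ml) and anti-CD28 (5 μg/ml), T cells expanded from PBMC were exposed to compound for 1 h; the counter-screen replaced antibodies with PMA 0.5 ng/ml and ionomycin 0.1 μM (final).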
(In general: In an ELISA, binding on a coated surface is turned into a signal by an enzyme label.)

Where [1] appears, read: 24 h, human primary T cells stimulated with anti-CD3 + anti-CD28, IL-2 by ELISA, read-out: IC50 for blocking IL-2 production.
Setting [2] is: human primary T cells stimulated with anti-CD3 + anti-CD28, 24 h, IL-2 by ELISA, 8 pt, read-out: IL2 ELISA, Human primary T cell, anti-CD3 + CD28, 8 pt (IC50).

Where two headings read alike, the source gives them in different places. Some results are limits rather than exact numbers.

The term IC50 denotes the point on the concentration scale where inhibition reaches its midpoint. Regarding `Cc1cnc(Nc2cc(C#N)c(C3CC3)cc2F)nc1NC[C@@H]1CCCN2CCCC[C@H]12` [Compound 69, 5-(4-(((1S,9aR)-octahydro-1H-quinolizin-1-yl)methylamino)-5-methylpyrimidin-2-ylamino)-2-cyclopropyl-4-fluorobenzonitrile], the IC50 by setting is: under setting [1], under 30 µM; under setting [2], 0.265 µM.

For the compound `Cn1nnn(-c2cc(Nc3ncc(F)c(NC[C@@H]4CCCN5CCCC[C@H]45)n3)ccc2OC2COC2)c1=O` [Compound 14, 1-(5-(4-(((1S,9aR)-octahydro-1H-quinolizin-1-yl)methylamino)-5-fluoropyrimidin-2-ylamino)-2-(oxetan-3-yloxy)phenyl)-4-methyl-1H-tetrazol-5(4H)-one], the IC50 by setting is: under setting [1], under 30 µM; under setting [2], 0.201 µM.

Regarding `Cn1nnn(-c2cc(Nc3ncc(C#N)c(NC[C@@H]4CCCN5CCCC[C@H]45)n3)c(F)cc2OCC(O)(C(F)(F)F)C(F)(F)F)c1=O` [Compound 134, 2-((2-fluoro-5-(4-methyl-5-oxo-4,5-dihydro-1H-tetrazol-1-yl)-4-(3,3,3-trifluoro-2-hydroxy-2-(trifluoromethyl)propoxy)phenyl)amino)-4-((((1S,9aR)-octahydro-2H-quinolizin-1-yl)methyl)amino)pyrimidine-5-carbonitrile], the IC50 runs as follows: under setting [1], under 30 µM; under setting [2], 0.908 µM.

In the case of `COc1cnc(Nc2ccc(C)c(C#N)c2)nc1NC[C@@H]1CCCN2CCCC[C@H]12` [Compound 80, 5-(4-(((1S,9aR)-octahydro-1H-quinolizin-1-yl)methylamino)-5-methoxypyrimidin-2-ylamino)-2-methylbenzonitrile], the IC50 reads like this: under setting [1], under 30 µM; under setting [2], 2.48 µM.

Turning to `Cc1cnc(Nc2cc(-n3nnn(C)c3=O)c(C3CC3)cc2F)nc1NC[C@@H]1CCCN2CCCC[C@H]12` [Compound 61, 1-(5-(4-(((1S,9aR)-octahydro-1H-quinolizin-1-yl)methylamino)-5-methylpyrimidin-2-ylamino)-2-cyclopropyl-4-fluorophenyl)-4-methyl-1H-tetrazol-5(4H)-one], the IC50 is under 30 µM under setting [1] and 1.98 µM under setting [2].

For the compound `Fc1cnc(Nc2ccc3c(c2)OC(F)(F)C(F)(F)O3)nc1NC[C@@H]1CCCN2CCCC[C@H]12` [Compound 20, 5-fluoro-N2-(2,2,3,3-tetrafluoro-2,3-dihydrobenzo[b][1,4]dioxin-7-yl)-N4-(((1S,9aR)-octahydro-1H-quinolizin-1-yl)methyl)pyrimidine-2,4-diamine], the IC50 reads like this: under setting [1], under 30 µM; under setting [2], 1.07 µM.

Turning to `COc1cnc(Nc2cc(-n3nnn(C)c3=O)c(C3CC3)cc2F)nc1NC[C@@H]1CCCN2CCCC[C@H]12` [Compound 74, 1-(5-(4-(((1S,9aR)-octahydro-1H-quinolizin-1-yl)methylamino)-5-methoxypyrimidin-2-ylamino)-2-cyclopropyl-4-fluorophenyl)-4-methyl-1H-tetrazol-5(4H)-one], the IC50 under setting [1] is under 30 µM and the IC50 under setting [2] was found to be 2.19 µM.

As for `Cn1nnn(-c2cc(Nc3ncc(F)c(NC[C@@H]4CCCN5CCCC[C@H]45)n3)c(F)cc2OCC(C)(C)O)c1=O` [Compound 154, 1-(4-fluoro-5-((5-fluoro-4-((((1S,9aR)-octahydro-2H-quinolizin-1-yl)methyl)amino)pyrimidin-2-yl)amino)-2-(2-hydroxy-2-methylpropoxy)phenyl)-4-methyl-1,4-dihydro-5H-tetrazol-5-one], the IC50 is, setting by setting: under setting [1], under 30 µM; under setting [2], 0.188 µM.

In the case of `Cn1nnn(-c2cc(Nc3ncc(C(F)(F)F)c(NC[C@@H]4CCCN5CCCC[C@H]45)n3)c(F)cc2C2CC2)c1=O` [Compound 102, 1-(5-(4-(((1S,9aR)-octahydro-1H-quinolizin-1-yl)methylamino)-5-(trifluoromethyl)pyrimidin-2-ylamino)-2-cyclopropyl-4-fluorophenyl)-4-methyl-1H-tetrazol-5(4H)-one], the IC50 reads like this: under setting [1], under 30 µM; under setting [2], 12.6 µM.

With `N#Cc1cccc(Nc2ncc(C(F)(F)F)c(NC[C@@H]3CCCN4CCCC[C@H]34)n2)c1` [Compound 107, 3-(4-(((1S,9aR)-octahydro-1H-quinolizin-1-yl)methylamino)-5-(trifluoromethyl)pyrimidin-2-ylamino)benzonitrile], the half-maximal inhibitory concentration (IC50) was under 30 µM under setting [1] and 17.1 µM under setting [2].

Turning to `COc1ccc(Nc2ncc(C(F)(F)F)c(NC[C@@H]3CCCN4CCCC[C@H]34)n2)cc1-n1nnnc1C` [Compound 105, 5-(trifluoromethyl)-N4-(((1S,9aR)-octahydro-1H-quinolizin-1-yl)methyl)-N2-(4-methoxy-3-(5-methyl-1H-tetrazol-1-yl)phenyl)pyrimidine-2,4-diamine], the IC50 runs as follows: under setting [1], under 30 µM; under setting [2], 11.8 µM.
